Laboratory results from the supplement of paper PMC10307832.

Columns and labels:
Test in all cases: relative viability (nuclei count vs DMSO), 5 days (fraction); higher = more cells survive
NCI-H322M = test system: NCI-H322M
Procedure, shortened: (§1)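 Cells from lung cancer lines were seeded into 1536-well plates and, one day later, dosed by pin tool. Treatments were either a single drug or a fixed dose of an anchor drug with five library-drug doses (not always all listed) in √10 steps. After 5 days, nuclei were stained in a one-step fixation (final 0.05% Triton X-100, 1% formaldehyde, 1 ug/ml Hoechst) and counted on 4× images, and relative viability is the treated-to-vehicle nuclei ratio, as the median of duplicate plates.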

H3255 = test system: H3255
Procedure, shortened: as §1

NCI-H1666 = test system: NCI-H1666
Procedure, shortened: as §1

NCI-H358 = test system: NCI-H358
Procedure, shortened: as §1

UMC-11 = test system: UMC-11
Procedure, shortened: as §1

LXF-289 = test system: LXF-289
Procedure, shortened: as §1

SK-MES-1 = test system: SK-MES-1
Procedure, shortened: as §1

HCC-15 = test system: HCC-15
Procedure, shortened: as §1

LCLC-97TM1 = test system: LCLC-97TM1
Procedure, shortened: as §1

ChaGo-K-1 = test system: ChaGo-K-1
Procedure, shortened: as §1

NCI-H661 = test system: NCI-H661
Procedure, shortened: as §1

LC-2-ad = test system: LC-2-ad
Procedure, shortened: as §1

NCI-H650 = test system: NCI-H650
Procedure, shortened: as §1

LK-2 = test system: LK-2
Procedure, shortened: as §1

NCI-H596 = test system: NCI-H596
Procedure, shortened: as §1

NCI-H2087 = test system: NCI-H2087
Procedure, shortened: as §1

HCC-78 = test system: HCC-78
Procedure, shortened: as §1

NCI-H838 = test system: NCI-H838
Procedure, shortened: as §1

NCI-H1944 = test system: NCI-H1944
Procedure, shortened: as §1

BEN = test system: BEN
Procedure, shortened: as §1

PC-3 [JPC-3] = test system: PC-3 [JPC-3]
Procedure, shortened: as §1

NCI-H1651 = test system: NCI-H1651
Procedure, shortened: as §1

LU99A = test system: LU99A
Procedure, shortened: as §1

## Clc1ccc(Nc2nnc(Cc3ccncc3)c3ccccc23)cc1 [Vatalanib] + CS(=O)(=O)N1CCN(Cc2cc3nc(-c4cccc5[nH]ncc45)nc(N4CCOCC4)c3s2)CC1 [Pictilisib] (partner 1 µM)
NCI-H322M; first compound 0.04 µM
  relative viability: 0.513
NCI-H322M; first compound 0.1265 µM
  relative viability: 0.489
NCI-H322M; first compound 0.4 µM
  relative viability: 0.555
NCI-H322M; first compound 1.265 µM
  relative viability: 0.534
NCI-H322M; first compound 4 µM
  relative viability: 0.553
H3255; first compound 0.04 µM
  relative viability: 0.43
H3255; first compound 0.1265 µM
  relative viability: 0.52
H3255; first compound 0.4 µM
  relative viability: 0.311
H3255; first compound 1.265 µM
  relative viability: 0.384
H3255; first compound 4 µM
  relative viability: 0.438
NCI-H1666; first compound 0.04 µM
  relative viability: 0.538
NCI-H1666; first compound 0.1265 µM
  relative viability: 0.334
NCI-H1666; first compound 0.4 µM
  relative viability: 0.33
NCI-H1666; first compound 1.265 µM
  relative viability: 0.512
NCI-H1666; first compound 4 µM
  relative viability: 0.499
NCI-H358; first compound 0.04 µM
  relative viability: 0.378
NCI-H358; first compound 0.1265 µM
  relative viability: 0.361
NCI-H358; first compound 0.4 µM
  relative viability: 0.397
NCI-H358; first compound 1.265 µM
  relative viability: 0.311
NCI-H358; first compound 4 µM
  relative viability: 0.353
UMC-11; first compound 0.04 µM
  relative viability: 0.814
UMC-11; first compound 0.1265 µM
  relative viability: 0.746
UMC-11; first compound 0.4 µM
  relative viability: 0.875
UMC-11; first compound 1.265 µM
  relative viability: 0.79
UMC-11; first compound 4 µM
  relative viability: 0.794
LXF-289; first compound 0.04 µM
  relative viability: 0.894
LXF-289; first compound 0.1265 µM
  relative viability: 0.737
LXF-289; first compound 0.4 µM
  relative viability: 0.748
LXF-289; first compound 1.265 µM
  relative viability: 0.702
LXF-289; first compound 4 µM
  relative viability: 0.747
SK-MES-1; first compound 0.04 µM
  relative viability: 0.408
SK-MES-1; first compound 0.1265 µM
  relative viability: 0.351
SK-MES-1; first compound 0.4 µM
  relative viability: 0.387
SK-MES-1; first compound 1.265 µM
  relative viability: 0.338
SK-MES-1; first compound 4 µM
  relative viability: 0.365
HCC-15; first compound 0.04 µM
  relative viability: 0.788
HCC-15; first compound 0.1265 µM
  relative viability: 0.741
HCC-15; first compound 0.4 µM
  relative viability: 0.799
HCC-15; first compound 1.265 µM
  relative viability: 0.716
HCC-15; first compound 4 µM
  relative viability: 0.786
LCLC-97TM1; first compound 0.04 µM
  relative viability: 0.136
LCLC-97TM1; first compound 0.1265 µM
  relative viability: 0.243
LCLC-97TM1; first compound 0.4 µM
  relative viability: 0.187
LCLC-97TM1; first compound 1.265 µM
  relative viability: 0.19
LCLC-97TM1; first compound 4 µM
  relative viability: 0.195
ChaGo-K-1; first compound 0.04 µM
  relative viability: 0.418
ChaGo-K-1; first compound 0.1265 µM
  relative viability: 0.719
ChaGo-K-1; first compound 1.265 µM
  relative viability: 0.687
ChaGo-K-1; first compound 4 µM
  relative viability: 0.787
NCI-H661; first compound 0.04 µM
  relative viability: 0.345
NCI-H661; first compound 0.1265 µM
  relative viability: 0.378
NCI-H661; first compound 0.4 µM
  relative viability: 0.392
NCI-H661; first compound 1.265 µM
  relative viability: 0.365
NCI-H661; first compound 4 µM
  relative viability: 0.34
LC-2-ad; first compound 0.04 µM
  relative viability: 0.574
LC-2-ad; first compound 0.1265 µM
  relative viability: 0.551
LC-2-ad; first compound 0.4 µM
  relative viability: 0.559
LC-2-ad; first compound 1.265 µM
  relative viability: 0.509
LC-2-ad; first compound 4 µM
  relative viability: 0.645
NCI-H650; first compound 0.04 µM
  relative viability: 0.875
NCI-H650; first compound 0.1265 µM
  relative viability: 0.914
NCI-H650; first compound 1.265 µM
  relative viability: 0.868
NCI-H650; first compound 4 µM
  relative viability: 0.909
LK-2; first compound 0.04 µM
  relative viability: 0.531
LK-2; first compound 0.1265 µM
  relative viability: 0.561
LK-2; first compound 1.265 µM
  relative viability: 0.651
LK-2; first compound 4 µM
  relative viability: 0.569
NCI-H596; first compound 0.04 µM
  relative viability: 0.347
NCI-H596; first compound 0.1265 µM
  relative viability: 0.353
NCI-H596; first compound 0.4 µM
  relative viability: 0.392
NCI-H596; first compound 1.265 µM
  relative viability: 0.371
NCI-H596; first compound 4 µM
  relative viability: 0.393
NCI-H2087; first compound 0.04 µM
  relative viability: 0.871
NCI-H2087; first compound 0.1265 µM
  relative viability: 0.752
NCI-H2087; first compound 0.4 µM
  relative viability: 1.15
NCI-H2087; first compound 1.265 µM
  relative viability: 0.826
NCI-H2087; first compound 4 µM
  relative viability: 0.931
HCC-78; first compound 0.04 µM
  relative viability: 0.199
HCC-78; first compound 0.1265 µM
  relative viability: 0.172
HCC-78; first compound 0.4 µM
  relative viability: 0.183
HCC-78; first compound 4 µM
  relative viability: 0.196
NCI-H838; first compound 0.04 µM
  relative viability: 0.477
NCI-H838; first compound 0.1265 µM
  relative viability: 0.41
NCI-H838; first compound 0.4 µM
  relative viability: 0.518
NCI-H838; first compound 1.265 µM
  relative viability: 0.453
NCI-H838; first compound 4 µM
  relative viability: 0.467
NCI-H1944; first compound 0.04 µM
  relative viability: 0.351
NCI-H1944; first compound 0.1265 µM
  relative viability: 0.316
NCI-H1944; first compound 0.4 µM
  relative viability: 0.37
NCI-H1944; first compound 1.265 µM
  relative viability: 0.356
NCI-H1944; first compound 4 µM
  relative viability: 0.352
BEN; first compound 0.04 µM
  relative viability: 0.552
BEN; first compound 0.1265 µM
  relative viability: 0.495
BEN; first compound 0.4 µM
  relative viability: 0.529
BEN; first compound 1.265 µM
  relative viability: 0.555
BEN; first compound 4 µM
  relative viability: 0.65
PC-3 [JPC-3]; first compound 0.04 µM
  relative viability: 0.796
PC-3 [JPC-3]; first compound 0.1265 µM
  relative viability: 0.715
PC-3 [JPC-3]; first compound 0.4 µM
  relative viability: 0.645
PC-3 [JPC-3]; first compound 1.265 µM
  relative viability: 0.726
PC-3 [JPC-3]; first compound 4 µM
  relative viability: 0.752
NCI-H1651; first compound 0.04 µM
  relative viability: 0.646
NCI-H1651; first compound 0.1265 µM
  relative viability: 0.276
NCI-H1651; first compound 0.4 µM
  relative viability: 0.642
NCI-H1651; first compound 1.265 µM
  relative viability: 0.511
NCI-H1651; first compound 4 µM
  relative viability: 0.594
LU99A; first compound 0.04 µM
  relative viability: 0.34
LU99A; first compound 0.1265 µM
  relative viability: 0.306
LU99A; first compound 0.4 µM
  relative viability: 0.375
LU99A; first compound 1.265 µM
  relative viability: 0.306
LU99A; first compound 4 µM
  relative viability: 0.312
